Columns and labels:
[1] = tested on: scopolamine-stimulated locomotion; test: scopolamine-stimulated locomotion in rats (60 min activity counts); format: in vivo, rat; conditions: for antagonism of scopolamine-stimulated locomotion: 0.03-1 mg/kg
Protocol: Cholinergic deficiency states include various neurodegenerative diseases such as Alzheimer's disease, Dementia with Lewy Bodies, Charles Bonnet Syndrome, delirium and Parkinson's disease. Experimental Procedure. All procedures were conducted in normal white light conditions. Rats (1 per box) were first acclimated to test boxes (45×22×20 cm; clear polycarbonate with a plastic top) for 90 minutes. […] Testing commenced immediately. […] Each interruption of a photoelectric light beam was recorded as a single activity count by a microprocessor-based control system. Testing took place between 10:00 a.m. and 5:00 p.m., with all groups counterbalanced for time of testing. The experimenter was blind to treatment group during the experiment.

social memory = social memory test in mice (duration of social interaction, baseline vs retest); format: in vivo; conditions: 0.1 and 1 mg/kg
Protocol: Male CD-1 mice (30-35 grams) were first acclimated to the test room for approximately 1 hour. […] For the baseline test, unfamiliar pairs of mice were placed into a test chamber (plexiglas mouse cage with sawdust bedding). The duration of social interaction of the two mice (sniffing, anogenital exploration, nosing, grooming, licking, pawing, playing copulatory attempts) was observed and recorded for a period of five minutes and was registered cumulatively as total seconds of contact. Twenty-four hours later, the animals were given a retest without any drug treatment. At the retest, the now familiar partners from the baseline test were placed into the test chamber for a second confrontation and the duration of social interaction was again measured. Social memory was defined as a significant decrease in duration of social contact from baseline to retest. Testing took place in normal white light conditions between the hours of 8:30 am and 3:00 pm. The experimenter was blind to the treatment group until the completion of the experiment. The results represent combined data (n=36 per group total) from two studies. Data were analyzed using the Mann-Whitney test.

Row | SMILES | antagonism of scopolamine-stimulated locomotion [1] | Group mean of 60 min activity count totals ([1]; M100907 0.03 + SCOP 0.75, intraperitoneal, n=6) | Group mean of 60 min activity count totals ([1]; M100907 0.1 + SCOP 0.75, intraperitoneal, n=6) | Group mean of 60 min activity count totals ([1]; M100907 0.3 + SCOP 0.75, intraperitoneal, n=6) | Group mean of 60 min activity count totals ([1]; M100907 1 + SCOP 0.75, intraperitoneal, n=6) | effect on social memory (social memory) | Group mean of 60 min activity count totals ([1]; risperidone 0.03 + SCOP 0.75, intraperitoneal, n=8) | Group mean of 60 min activity count totals ([1]; risperidone 0.1 + SCOP 0.75, intraperitoneal, n=8) | Group mean of 60 min activity count totals ([1]; risperidone 0.3 + SCOP 0.75, intraperitoneal, n=8) | Group mean of 60 min activity count totals ([1]; risperidone 1 + SCOP 0.75, intraperitoneal, n=8) | activity level relative to baseline (vehicle) level ([1]; risperidone at the two higher doses + scopolamine)
1 | COc1cccc([C@H](O)C2CCN(CCc3ccc(F)cc3)CC2)c1OC [M100907, (+)-isomer of α-(2,3-dimethoxyphenyl)-1-[2-(4-fluorophenyl)ethyl]-4-piperidinemethanol] | significantly antagonized | 3181 | 2378 | 2087 | 2231 | significantly enhanced |  |  |  |  | 
2 | Cc1nc2n(c(=O)c1CCN1CCC(c3noc4cc(F)ccc34)CC1)CCCC2 [risperidone] | significantly antagonized |  |  |  |  |  | 4615 | 4037 | 1795 | 772 | reduced activity below baseline level

— patent publication US20040204457A1, “Use of (+)-alpha-(2,3-dimethoxyphenyl)-1-[2-(4-fluorophenyl)ethyl]-4- piperidinemethanol or its prodrug in the treatment of symptoms of dementia and dopamine induced psychosis” (Aventis Pharmaceuticals Inc., priority 2000, published 2004)
